Laboratory results taken from PubChem BioAssay AID2060489 (Molecular Pharmacology Branch, DTP, NCI, 2025).
“And” between values parts separate entries of the source, which are not always exact repeats. Equal entries are not always repeated.

Tested on: 922993-354-T-J3-PDC complex spheroids, viability
Assay: Anticancer human tumor 922993-354-T-J3-PDC patient-derived endometrial carcinoma cell line growth inhibition [GQUAD]
Settings: for viability, T/C: stronger effect = lower value
Source text: DNA G-quadruplex Stabilizer Agents in Combinations in Complex Spheroids
A high-throughput screen of multi-cell type tumor spheroids was designed to identify active combinations of DNA G-quadruplex stabilizer agents and targeted small molecules. Complex spheroids include a stromal component modeled by human endothelial cells (HUVEC) and fibroblasts modeled by human mesenchymal stem cells (MSCs). The concentration ranges selected for each drug and investigational agent were based upon clinically achievable concentrations if the clinical Cmax of the agent was known.
Compounds. The drugs and investigational agents: pidnarulex (CX-5461; NSC782164), APTO-253 (NSC789042), BRACO-19 (NSC847499), peposertib (NSC802822), ceralasertib (NSC780249), elimusertib (NSC800525), camonsertib (NSC841442), AZD-1390 (NSC803789), olaparib (NSC753686), talazoparib (NSC767125), ART-558 (NSC835418), sotorasib (NSC818433), MRTX-1133 (NSC836407), SN-38 (NSC673596), topotecan (NSC609699), etoposide (NSC141540), doxorubicin (NSC123127), gemcitabine (NSC613327), 5-fluorouracil (NSC19893), paclitaxel (NSC125973), vemurafenib (NSC761431), panobinostat (NSC761190), R-306465 (JNJ-16241199; NSC773264), adavosertib (NSC754352), TP-3654 (NSC805149), carboplatin (NSC241240), KSQ-4279 (NSC840948), and staurosporine (NSC755774) were obtained from the National Cancer Institute (NCI) Developmental Therapeutics Program Chemical Repository (34). The FDA-approved anticancer drug set is available from the NCI Developmental Therapeutics Program. […] The stock solutions were prepared in dimethyl sulfoxide (DMSO, Sigma-Aldrich, St. Louis, MO, cat. D2650) at 800-fold the tested concentration and stored at -70 degrees C prior to their use. All drugs and investigational agents were tested over a range starting from a high concentration at or near the clinical Cmax and decreasing in half-log increments. If the clinical Cmax for an agent had not been determined, the highest concentration tested was 10 microM.
2.3 Cell Culture. All cells were maintained in an incubator at 37 degrees C and 5% CO2 with 95% humidity. The PDC lines were cultured according to standard operating procedures established by the NCI PDMR. All PDCs were thawed and cultured in Matrigel-coated flasks prepared with a working solution of 1X Ham's F-12 nutrient mix, without supplementation (Invitrogen, cat. 11765054), 100 U/mL penicillin-streptomycin (Invitrogen, cat. 15140122), and 2.5% Matrigel (Corning Inc., cat. 354248) for the first three passages. The 857933-349-R-J2-PDC line was cultured in 6C/Colon 1B media, which includes advanced DMEM/F-12 (Thermo Fisher Scientific, cat. 12634028), 10 mM HEPES (Thermo Fisher Scientific, cat. 15630080), 1X GlutaMAX supplement (Thermo Fisher Scientific, cat. 35050061), 0.1 mg/mL primocin (InvivoGen, cat. ant-pm-2), 10% defined fetal bovine serum, heat inactivated (HyClone Laboratories Inc., cat. SH30070.03HI), 50% L-WRN conditioned media (ATCC, cat. CRL-3276), 1.25 mM N-Acetyl-L-cysteine (Sigma-Aldrich, cat. A9165), 10 mM nicotinamide (Sigma-Aldrich, cat. N0636), 1X B-27 supplement (Thermo Fisher Scientific, cat. 17504044), 1X N-2 supplement (Thermo Fisher Scientific, cat. 17502048), 10 microM Y-27632 dihydrochloride (Tocris Bioscience, cat. 1254), and 50 ng/mL human EGF recombinant protein (Thermo Fisher Scientific, cat. PHG0311). The 485176-168-R4-J1-PDC line was cultured in Panc media, which includes all 6C/Colon 1B media components plus 100 ng/mL human FGF-10 (Thermo Fisher Scientific, cat. 100-26), 500 nM SB-431542 (Selleckchem, cat. S1067), and gastrin (Tocris, cat. 3006).
[…]

[1] = curve of first compound, second compound 0.0316 µM
[2] = curve of first compound, second compound 0.1 µM
[3] = curve of first compound, second compound 0.316 µM
[4] = curve of first compound, second compound 1 µM
[5] = curve of first compound, second compound 3.16 µM
[6] = curve of first compound, second compound 10 µM
[7] = second compound 0.0316 µM, first compound 0.0316 µM
[8] = second compound 0.0316 µM, first compound 0.1 µM
[9] = second compound 0.0316 µM, first compound 0.316 µM
[10] = second compound 0.0316 µM, first compound 1 µM
[11] = second compound 0.0316 µM, first compound 3.16 µM
[12] = second compound 0.0316 µM, first compound 10 µM
[13] = second compound 0.1 µM, first compound 0.0316 µM
[14] = second compound 0.1 µM, first compound 0.1 µM
[15] = second compound 0.1 µM, first compound 0.316 µM
[16] = second compound 0.1 µM, first compound 1 µM
[17] = second compound 0.1 µM, first compound 3.16 µM
[18] = second compound 0.1 µM, first compound 10 µM
[19] = second compound 0.316 µM, first compound 0.0316 µM
[20] = second compound 0.316 µM, first compound 0.1 µM
[21] = second compound 0.316 µM, first compound 0.316 µM
[22] = second compound 0.316 µM, first compound 1 µM
[23] = second compound 0.316 µM, first compound 3.16 µM
[24] = second compound 0.316 µM, first compound 10 µM
[25] = second compound 1 µM, first compound 0.0316 µM
[26] = second compound 1 µM, first compound 0.1 µM
[27] = second compound 1 µM, first compound 0.316 µM
[28] = second compound 1 µM, first compound 1 µM
[29] = second compound 1 µM, first compound 3.16 µM
[30] = second compound 1 µM, first compound 10 µM
[31] = second compound 3.16 µM, first compound 0.0316 µM
[32] = second compound 3.16 µM, first compound 0.1 µM
[33] = second compound 3.16 µM, first compound 0.316 µM
[34] = second compound 3.16 µM, first compound 1 µM
[35] = second compound 3.16 µM, first compound 3.16 µM
[36] = second compound 3.16 µM, first compound 10 µM
[37] = second compound 10 µM, first compound 0.0316 µM
[38] = second compound 10 µM, first compound 0.1 µM
[39] = second compound 10 µM, first compound 0.316 µM
[40] = second compound 10 µM, first compound 1 µM
[41] = second compound 10 µM, first compound 3.16 µM
[42] = second compound 10 µM, first compound 10 µM
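Also: spheroids exposed to compounds for seven days.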
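For viability, T/C in this document: 100% = DMSO vehicle control viability.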

Which results are given for `COc1ncnc(C2CC2)c1-c1ncc2cnn(Cc3ccc(-c4nc(C(F)(F)F)cn4C(C)C)cc3)c2n1` + Cc1cnc(CNC(=O)c2c(=O)c3ccc(N4CCCN(C)CC4)nc3n3c2sc2ccccc23)cn1?
IC50 [1]: > 10 µM; IC50 [2]: > 10 µM; IC50 [3]: < 0.0316 µM; IC50 [4]: < 0.0316 µM; IC50 [5]: < 0.0316 µM; IC50 [6]: 3.23 µM; viability, T/C [7]: 98.1%; viability, T/C [8]: 72.7%; viability, T/C [9]: 80.5%; viability, T/C [10]: 48.3%; viability, T/C [11]: 59%; viability, T/C [12]: 63.4%; viability, T/C [13]: 67.8%; viability, T/C [14]: 44.2%; viability, T/C [15]: 45.6%; viability, T/C [16]: 44.3%; viability, T/C [17]: 51.4%; viability, T/C [18]: 70.4%; viability, T/C [19]: 41%; viability, T/C [20]: 34.5%; viability, T/C [21]: 41.8%; viability, T/C [22]: 49.3%; viability, T/C [23]: 51.3%; viability, T/C [24]: 52.7%; viability, T/C [25]: 44.5%; viability, T/C [26]: 44.6%; viability, T/C [27]: 41.6%; viability, T/C [28]: 46.3%; viability, T/C [29]: 54.9%; viability, T/C [30]: 67.1%; viability, T/C [31]: 40.9%; viability, T/C [32]: 41.7%; viability, T/C [33]: 50.3%; viability, T/C [34]: 49.2%; viability, T/C [35]: 43%; viability, T/C [36]: 55.7%; viability, T/C [37]: 48.6%; viability, T/C [38]: 47.7%; viability, T/C [39]: 52.6%; viability, T/C [40]: 49%; viability, T/C [41]: 53.3%; viability, T/C [42]: 40.1%

What does the source list for `Nc1ccn(C2OC(CO)C(O)C2(F)F)c(=O)n1` (stereo not drawn) + Cc1cnc(CNC(=O)c2c(=O)c3ccc(N4CCCN(C)CC4)nc3n3c2sc2ccccc23)cn1?
IC50 [1]: < 0.0316 µM; IC50 [2]: < 0.0316 µM; IC50 [3]: < 0.0316 µM; IC50 [4]: < 0.0316 µM; IC50 [5]: < 0.0316 µM; IC50 [6]: < 0.0316 µM; viability, T/C [7]: 29.4%; viability, T/C [8]: 28.8%; viability, T/C [9]: 23.6%; viability, T/C [10]: 21.1%; viability, T/C [11]: 23.4%; viability, T/C [12]: 21.7%; viability, T/C [13]: 26.3%; viability, T/C [14]: 23.9%; viability, T/C [15]: 29.4%; viability, T/C [16]: 21.7%; viability, T/C [17]: 25.2%; viability, T/C [18]: 27.2%; viability, T/C [19]: 34.3%; viability, T/C [20]: 34.5%; viability, T/C [21]: 30.5%; viability, T/C [22]: 30.3%; viability, T/C [23]: 31.5%; viability, T/C [24]: 27.8%; viability, T/C [25]: 38.1%; viability, T/C [26]: 50.9%; viability, T/C [27]: 54.8%; viability, T/C [28]: 34.6%; viability, T/C [29]: 46.1%; viability, T/C [30]: 39.4%; viability, T/C [31]: 39.6%; viability, T/C [32]: 45%; viability, T/C [33]: 48.3%; viability, T/C [34]: 38%; viability, T/C [35]: 56.3%; viability, T/C [36]: 41.8%; viability, T/C [37]: 45.1%; viability, T/C [38]: 33.5%; viability, T/C [39]: 44.8%; viability, T/C [40]: 41.2%; viability, T/C [41]: 39.2%; viability, T/C [42]: 33.4%

What does the source list for `C=CCn1c(=O)c2cnc(Nc3ccc(N4CCN(C)CC4)cc3)nc2n1-c1cccc(C(C)(C)O)n1`?
viability, T/C (compound 0.0316 µM): 79.8% and 93.2% and 78.9%; viability, T/C (compound 0.1 µM): 83.2% and 85.1% and 115%; viability, T/C (compound 0.316 µM): 107% and 109% and 113%; viability, T/C (compound 1 µM): 97.1% and 94.7% and 90.2%; viability, T/C (compound 3.16 µM): 66.1% and 73.2% and 82.1%; viability, T/C (compound 10 µM): 14.4% and 13.4% and 27.5%; IC50 (curve of compound): 4.52 µM and 4.95 µM and 6.19 µM

With `CC1COCCN1c1cc(-c2ccnn2C)c2ccnc(-c3ccn[nH]3)c2n1` (stereo not drawn) as the molecule, how does the viability, T/C (compound 0.0316 µM) read?
The viability, T/C was 83.5% and 95% and 87.4%.

What about the viability, T/C (compound 0.1 µM) of the same molecule?
Its viability, T/C is 71.5% and 63.7% and 70.4%.

And the viability, T/C (compound 0.316 µM)?
The viability, T/C was 48.3% and 41.6% and 62.9%.

What about the viability, T/C (compound 1 µM) of the same molecule?
Its viability, T/C is 22.1% and 12.8% and 28.7%.

What about the viability, T/C (compound 3.16 µM) of the same molecule?
Its viability, T/C is 19.6% and 22% and 23.4%.

And the viability, T/C (compound 10 µM)?
The viability, T/C was 16.8% and 19.2% and 17.7%.

What about the IC50 (curve of compound) of the same molecule?
The IC50 was 0.273 µM and 0.184 µM and 0.451 µM.
